Test results taken from patent US6274620A, “Thiophene integrin inhibitors” (BioChem Pharma Inc., priority 2000, dated 2001).
Counter-ions that a name gives are not always drawn.

Key:
αvβ3 [1] = target: T1, αvβ3 (Homo sapiens, UniProt P05106+P06756); test: Solid-phase assay: biotinylated-fibrinogen binding to immobilized αvβ3; parameters: placental αvβ3; from tissue; host or cells: placenta; conditions: for IC50: Solid Phase Assay, biotinylated-fibrinogen 10 nM, 2 hours at 37° C; for Selectivity: αIIbβ3 vs αvβ3 solid phase IC50
T1 sequence (P06756 31-889 limits assumed): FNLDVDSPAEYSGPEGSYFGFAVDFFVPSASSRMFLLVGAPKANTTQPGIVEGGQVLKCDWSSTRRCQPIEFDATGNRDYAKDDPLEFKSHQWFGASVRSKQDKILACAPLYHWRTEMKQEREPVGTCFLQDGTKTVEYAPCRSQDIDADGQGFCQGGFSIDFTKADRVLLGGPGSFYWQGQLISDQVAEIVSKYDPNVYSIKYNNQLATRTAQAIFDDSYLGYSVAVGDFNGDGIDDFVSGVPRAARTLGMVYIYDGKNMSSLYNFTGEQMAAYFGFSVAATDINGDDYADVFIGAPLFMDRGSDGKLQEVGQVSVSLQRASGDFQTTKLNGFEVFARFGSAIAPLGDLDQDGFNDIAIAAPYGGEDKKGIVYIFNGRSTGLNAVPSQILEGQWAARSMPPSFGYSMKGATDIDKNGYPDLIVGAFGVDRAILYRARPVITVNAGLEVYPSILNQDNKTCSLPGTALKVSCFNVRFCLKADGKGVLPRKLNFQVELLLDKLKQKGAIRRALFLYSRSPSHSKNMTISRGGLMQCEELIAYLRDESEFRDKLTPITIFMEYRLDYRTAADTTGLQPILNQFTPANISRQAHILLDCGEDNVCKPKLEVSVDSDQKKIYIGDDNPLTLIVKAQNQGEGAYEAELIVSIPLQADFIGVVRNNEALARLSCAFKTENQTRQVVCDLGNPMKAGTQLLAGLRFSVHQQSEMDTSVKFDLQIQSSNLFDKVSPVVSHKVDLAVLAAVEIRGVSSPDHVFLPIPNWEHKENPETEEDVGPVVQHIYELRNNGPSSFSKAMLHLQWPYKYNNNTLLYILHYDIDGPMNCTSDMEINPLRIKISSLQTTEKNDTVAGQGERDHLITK
T1 sequence (P06756 891-1048 limits assumed): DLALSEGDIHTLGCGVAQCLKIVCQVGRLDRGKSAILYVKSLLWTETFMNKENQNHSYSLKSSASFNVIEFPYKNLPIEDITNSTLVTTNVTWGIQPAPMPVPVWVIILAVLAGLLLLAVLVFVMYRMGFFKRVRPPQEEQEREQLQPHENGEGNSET
T1 sequence (P05106 27-788): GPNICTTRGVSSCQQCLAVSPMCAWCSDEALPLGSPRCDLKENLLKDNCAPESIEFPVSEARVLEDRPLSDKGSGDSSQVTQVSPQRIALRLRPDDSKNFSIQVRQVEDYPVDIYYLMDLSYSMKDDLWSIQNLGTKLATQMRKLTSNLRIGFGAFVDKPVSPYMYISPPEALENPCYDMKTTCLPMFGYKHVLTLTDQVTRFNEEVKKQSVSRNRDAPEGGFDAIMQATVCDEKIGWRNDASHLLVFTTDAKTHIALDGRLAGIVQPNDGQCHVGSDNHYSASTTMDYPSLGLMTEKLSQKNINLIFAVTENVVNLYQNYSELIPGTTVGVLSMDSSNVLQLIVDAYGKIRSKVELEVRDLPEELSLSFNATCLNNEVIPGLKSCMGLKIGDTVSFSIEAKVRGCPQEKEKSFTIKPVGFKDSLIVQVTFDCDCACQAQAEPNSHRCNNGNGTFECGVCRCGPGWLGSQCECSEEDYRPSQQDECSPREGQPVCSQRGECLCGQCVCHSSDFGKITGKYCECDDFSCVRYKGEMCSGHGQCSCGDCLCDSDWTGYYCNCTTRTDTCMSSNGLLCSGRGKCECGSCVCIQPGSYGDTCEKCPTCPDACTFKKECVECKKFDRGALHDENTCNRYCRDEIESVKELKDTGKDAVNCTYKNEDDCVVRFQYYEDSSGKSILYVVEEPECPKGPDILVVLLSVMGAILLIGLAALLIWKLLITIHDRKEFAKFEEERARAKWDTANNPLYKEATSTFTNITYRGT
Procedure: (§1) Assay 1. Fibrinogen Binding to Immobilized αIIbβ3 and αvβ3 (Solid-Phase Assays) The wells of plastic microtiter plates were coated overnight at 4° C. with purified active αIIbβ3 (Calbiochem) or placental αvβ3 at 0.5 ug/mL (100 uL/well) in a buffer containing 150 mM NaCl, 20 mM Tris, pH 7.4, 1 mM MgCl2, 0.2 mM MnCl2, and including 1 mM CaCl2 for αIIbβ3 Blocking of nonspecific sites was achieved by incubating the wells with 35 mg/mL bovine serum albumin (BSA) for at least 2 hours at 37° C. Biotinylated-fibrinogen (10 nM) was added in 0.2 mL binding buffer (100 mM NaCl, 50 mM Tris, pH 7.4, 1 mM MgCl2, 0.2 mM MnCl2 and 1 mg/mL BSA including 1 mM CaCl2 for αIIbβ3) to the wells in triplicate in the absence or presence of increasing concentrations of compounds of interest (0.001-100 uM) and further incubated for 2 hours at 37° C. Nonbound fibrinogen was removed by five washes with binding buffer. Avidin conjugated to alkaline phosphatase (Sigma), diluted in binding buffer, was added and incubated for two hours at 37° C. The plates were washed five times with binding buffer, and after addition of the substrate PNPP (Pierce), the enzyme activity was measured by the absorbance at 405 nm. The concentration of inhibitor required to inhibit 50% of biotinylated-fibrinogen binding was defined as IC50 determined by a nonlinear, sigmoidal dose response variable slope from the GraphPad Prism software.

αIIbβ3 = target: T2, αIIbβ3 (Homo sapiens, UniProt P05106+P08514); test: Solid-phase assay: biotinylated-fibrinogen binding to immobilized αIIbβ3; conditions: biotinylated-fibrinogen 10 nM, 2 hours at 37° C, 1 mM CaCl2, read-out: IC50 αIIbβ
T2 construct: purchased Calbiochem
T2 sequence (P08514 32-887 limits assumed): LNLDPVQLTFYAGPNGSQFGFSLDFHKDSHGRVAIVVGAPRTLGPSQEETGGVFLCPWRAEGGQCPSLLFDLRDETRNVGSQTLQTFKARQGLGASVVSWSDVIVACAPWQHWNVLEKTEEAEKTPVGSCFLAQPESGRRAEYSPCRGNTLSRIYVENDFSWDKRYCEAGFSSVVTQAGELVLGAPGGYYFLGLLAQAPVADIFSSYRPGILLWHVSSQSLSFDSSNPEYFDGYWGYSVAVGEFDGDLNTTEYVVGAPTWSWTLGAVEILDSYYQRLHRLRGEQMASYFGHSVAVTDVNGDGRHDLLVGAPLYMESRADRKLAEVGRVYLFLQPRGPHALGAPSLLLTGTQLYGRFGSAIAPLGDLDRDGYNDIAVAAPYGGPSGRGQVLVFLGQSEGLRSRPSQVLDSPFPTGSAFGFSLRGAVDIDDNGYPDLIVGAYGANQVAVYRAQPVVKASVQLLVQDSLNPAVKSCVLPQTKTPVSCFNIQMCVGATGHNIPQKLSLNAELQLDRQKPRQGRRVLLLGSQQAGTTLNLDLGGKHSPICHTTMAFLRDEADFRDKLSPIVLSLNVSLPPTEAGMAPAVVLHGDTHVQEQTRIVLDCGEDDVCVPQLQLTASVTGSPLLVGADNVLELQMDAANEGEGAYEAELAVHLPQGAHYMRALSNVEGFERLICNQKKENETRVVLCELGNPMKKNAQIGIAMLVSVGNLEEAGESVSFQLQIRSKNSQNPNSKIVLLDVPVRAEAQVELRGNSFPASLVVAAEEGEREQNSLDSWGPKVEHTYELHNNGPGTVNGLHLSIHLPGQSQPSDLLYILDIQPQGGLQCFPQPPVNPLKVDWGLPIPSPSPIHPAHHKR
T2 sequence (P08514 891-1039 limits assumed): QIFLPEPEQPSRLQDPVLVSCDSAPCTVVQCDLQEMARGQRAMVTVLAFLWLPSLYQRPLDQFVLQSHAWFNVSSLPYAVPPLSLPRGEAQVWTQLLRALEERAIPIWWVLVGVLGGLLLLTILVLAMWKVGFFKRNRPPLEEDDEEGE
T2 sequence (P05106 27-788): as the sequence (P05106 27-788) above
Procedure: Assay 1. Fibrinogen Binding to Immobilized αIIbβ3 and αvβ3
as §1, with “The” for “Assay 1. Fibrinogen Binding to Immobilized αIIbβ3 and αvβ3 (Solid-Phase Assays) The”

αvβ3 [2] = target: T1, αvβ3; test: Cell attachment assay, αvβ3; type: cell-based; conditions: 1 hour at 37° C
Procedure: (§2) The wells of 96-well plates (Immunolon) were coated, by incubation overnight at 4° C., with 5 ug/mL vitronectin, 2 ug/mL osteopontin, or fibronectin or 10 mg/mL BSA in PBS. The protein solution was flicked out and the wells were blocked with 10 mg/mL BSA (0.1 mL) for 1-2 hours at 37° C. Cells HT29, K562, or K562 transfected with αvβ3 (Blystone et al., 1994) were loaded with a fluorescent marker, 5-chloromethylfluorescein diacetate (Molecular Probes, Eugene, OR) for 1 hour at 37° C., then incubated in fresh medium without the fluorescent marker for 1 hour. Cells were lifted with trypsin-EDTA and washed two times with Hank's balanced salt solution minus cations (Sigma) supplemented with 1 mM MgCl2 Cells (75,000 cells/well) were added to coated plates in triplicate and allowed to attach at 37° C. for 1 hour in the presence or absence of specific antibodies (5 ug/mL) or 10-fold dilutions of compounds of interest starting at 10 uM. Nonadherent cells were removed by gentle washing twice with PBS. The adherent cells were solubilized with 1% triton x-100 and detected using a fluorescence plate reader (DYNEX Technologies). The number of attached cells was calculated based upon standard curves for each cell line used in the experiment. Non-specific cell attachment (attachment to wells coated with BSA) was always less than 5%.

αvβ5 = target: T3, αvβ5 (Homo sapiens, UniProt P06756+P18084); test: Cell attachment assay, αvβ5; type: cell-based; conditions: 1 hour at 37° C
T3 construct: Cells HT29, K562, or K562 transfected with αvβ3; endogenous in cells; host or cells: HT29
Procedure: as §2

α5β1 = target: T4, α5β1 (Homo sapiens, UniProt P05556+P08648); test: Cell attachment assay, α5β1; type: cell-based; conditions: 1 hour at 37° C
T4 construct: Cells HT29, K562, or K562 transfected with αvβ3; endogenous in cells; host or cells: K562
T4 sequence (P08648 42-894 limits assumed): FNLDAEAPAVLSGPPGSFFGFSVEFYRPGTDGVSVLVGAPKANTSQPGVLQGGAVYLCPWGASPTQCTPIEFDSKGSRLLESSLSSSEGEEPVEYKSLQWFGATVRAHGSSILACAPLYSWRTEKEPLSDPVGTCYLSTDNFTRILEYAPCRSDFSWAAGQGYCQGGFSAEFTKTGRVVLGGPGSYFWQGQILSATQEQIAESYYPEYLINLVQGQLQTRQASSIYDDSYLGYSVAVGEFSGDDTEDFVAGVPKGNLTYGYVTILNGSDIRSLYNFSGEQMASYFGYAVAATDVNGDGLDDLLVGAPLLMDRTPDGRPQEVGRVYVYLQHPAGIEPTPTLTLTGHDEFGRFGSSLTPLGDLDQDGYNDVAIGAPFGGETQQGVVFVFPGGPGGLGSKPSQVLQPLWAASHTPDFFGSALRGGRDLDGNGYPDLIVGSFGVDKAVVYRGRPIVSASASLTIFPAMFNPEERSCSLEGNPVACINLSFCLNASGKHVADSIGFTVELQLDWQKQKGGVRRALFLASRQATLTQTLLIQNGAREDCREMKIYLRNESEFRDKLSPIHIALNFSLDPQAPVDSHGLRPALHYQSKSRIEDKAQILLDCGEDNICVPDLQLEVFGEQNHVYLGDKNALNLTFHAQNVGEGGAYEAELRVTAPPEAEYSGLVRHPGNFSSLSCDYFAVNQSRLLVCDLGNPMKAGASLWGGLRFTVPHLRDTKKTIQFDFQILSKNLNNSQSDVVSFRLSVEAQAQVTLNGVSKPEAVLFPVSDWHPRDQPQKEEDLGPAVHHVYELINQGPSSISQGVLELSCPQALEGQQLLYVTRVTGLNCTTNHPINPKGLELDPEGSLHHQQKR
T4 sequence (P08648 895-1049 limits assumed): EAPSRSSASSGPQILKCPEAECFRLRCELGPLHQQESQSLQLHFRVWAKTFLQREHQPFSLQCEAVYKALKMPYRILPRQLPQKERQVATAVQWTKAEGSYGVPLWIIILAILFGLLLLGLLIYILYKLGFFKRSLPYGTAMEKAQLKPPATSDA
T4 sequence (P05556 21-798): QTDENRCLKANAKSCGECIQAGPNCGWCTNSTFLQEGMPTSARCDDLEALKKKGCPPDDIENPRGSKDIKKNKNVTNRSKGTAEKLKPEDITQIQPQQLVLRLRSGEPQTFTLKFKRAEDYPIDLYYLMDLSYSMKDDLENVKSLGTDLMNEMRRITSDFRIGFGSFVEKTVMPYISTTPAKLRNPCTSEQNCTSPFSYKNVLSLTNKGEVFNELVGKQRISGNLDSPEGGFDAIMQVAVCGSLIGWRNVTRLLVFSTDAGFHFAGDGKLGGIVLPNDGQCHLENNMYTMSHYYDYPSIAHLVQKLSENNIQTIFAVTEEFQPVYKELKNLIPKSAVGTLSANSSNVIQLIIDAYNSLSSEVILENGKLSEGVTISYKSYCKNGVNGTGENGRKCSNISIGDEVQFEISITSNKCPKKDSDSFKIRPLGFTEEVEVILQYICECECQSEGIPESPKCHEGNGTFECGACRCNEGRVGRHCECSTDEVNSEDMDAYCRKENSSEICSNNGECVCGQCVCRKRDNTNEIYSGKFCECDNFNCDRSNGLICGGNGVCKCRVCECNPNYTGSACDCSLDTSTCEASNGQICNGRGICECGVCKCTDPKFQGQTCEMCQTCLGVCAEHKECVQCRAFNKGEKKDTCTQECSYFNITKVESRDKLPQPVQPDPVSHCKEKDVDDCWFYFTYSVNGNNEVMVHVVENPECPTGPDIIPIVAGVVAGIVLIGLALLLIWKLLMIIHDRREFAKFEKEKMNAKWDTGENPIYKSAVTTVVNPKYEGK
Procedure: as §2

HMVEC = test: Cytotoxicity (MTT), HMVEC; type: cell-based; conditions: 72 hours, 5000 cells/well
Procedure: (§3) Assay 3. Cytotoxicity (MTT)
(§4) The wells of microtiter plates were seeded with 2000 cells/well T24, 2500 cells/well HT29 or 5000 cells/well HMVEC (Cell Systems) in 100 uL, followed by an overnight culture for cell adhesion. The next day, the media is supplemented with 100 uL of 10-fold dilution of compound of interest starting at 10 uM. Following culture for 72 hours, 3-(4, 5-dimethyl-2-thiazolyl)-2, 5-diphenyltetrazolium bromide (MTT; Sigma) at 2 mg/mL was added to each well (50 uL/well) and further incubated for 4 hours at 37° C. The medium was flicked out and 200 uL of a 1:1 solution of ethanol:acetone followed by 25 uL of glycine buffer (0.1 M glycine, 0.1M NaCl, pH 10.5) is added and the color measured by the absorbance at 570 nm.

HT29 = test: Cytotoxicity (MTT), HT29; type: cell-based; conditions: Homo sapiens, HT-29, 72 hours, 2500 cells/well
Procedure: as §3, §4

B16F10 = test: Cytotoxicity (MTT), B16F10; type: cell-based; conditions: Mus musculus, B16-F10, 72 hours
Procedure: [The source words this procedure for another cell line and reports this cell line under the same test.] as §3, §4

Row | SMILES | IC50 (αvβ3 [1]) [nM] | IC50 (αIIbβ3) [nM] | IC50 (αvβ3 [2]) [nM] | IC50 (αvβ5) [nM] | IC50 (α5β1) [nM] | IC50 (HMVEC) [nM] | IC50 (HT29) [nM] | IC50 (B16F10) [nM] | Selectivity (αvβ3 [1])
1 | CCOC(=O)[C@H](CNC(=O)c1ccc(-c2cccc(NC(=N)N)c2)s1)NS(=O)(=O)c1c(C)cc(C)cc1C [AB-2, 5-(3-Guanidino-phenyl)-thiophene-2-carboxylic acid [2-carbamoyl-2-(2,4,6-trimethyl-benzenesulfonylamino)-ethyl]-carboxylic acid ethyl ester] | 104 | – | – | – | – | – | – | – | –
2 | Cc1cc(C)c(S(=O)(=O)NC(CNC(=O)c2ccc(-c3cccc(NC(=N)N)c3)s2)C(N)=O)c(C)c1 (stereo not shown) [AB-4, 5-(3-Guanidino-phenyl)-thiophene-2-carboxylic acid [2-carbamoyl-2-(2,4,6-trimethyl-benzenesulfonylamino)-ethyl]-amide hydrochloride salt] | 36.3 | – | – | – | – | – | – | – | –
3 | Cc1cc(C)c(S(=O)(=O)NC(CNC(=O)c2ccc(-c3cccc(NC(=N)N)c3)s2)C(N)=O)c(C)c1 (stereo not shown) [AC-1, 5-(3-Guanidino-phenyl)-thiophene-2-carboxylic acid [2-carbamoyl-2-(2,4,6-trimethyl-benzenesulfonylamino)-ethyl]-amide hydrochloride salt] | 290 | – | – | – | – | – | – | – | –
4 | N=C(N)NCc1cccc(-c2ccc(C(=O)NC[C@H](NS(=O)(=O)c3ccccc3)C(=O)O)s2)c1 [Compound E-2, 2-Benzenesulfonylamino-3-{[5-(3-guanidinomethyl-phenyl)-thiophene-2-carbonyl]-amino}-propionic acid trifluoroacetic acid salt] | 2.7 | 0.55 | 0.18 | 72 | 640 | 200 | > 10000 | 1300 | 0.2
5 | Cc1cc(C)c(S(=O)(=O)N[C@@H](CNC(=O)c2ccc(-c3cccc(CNC(=N)N)c3)s2)C(=O)O)c(C)c1 [Compound F-2, 3-{[5-(3-Guanidinomethyl-phenyl)-thiophene-2-carbonyl]-amino}-2-(2,4,6-trimethyl-benzenesulfonylamino)-propionic acid trifluoroacetic acid salt] | 8.2 | 0.25 | 2.9 | 11 | 71 | 31 | 4600 | 190 | 0.03
6 | N=C(N)Nc1cccc(-c2ccc(C(=O)NC[C@H](NS(=O)(=O)c3ccccc3)C(=O)O)s2)c1 [Compound K-3, 2-Benzenesulfonylamino-3-{[5-(3-guanidino-phenyl)-thiophene-2-carbonyl]-amino}-propionic acid (trifluoroacetic acid salt)] | 1.5 | 1.4 | 2.8 | 6.4 | 80 | 45 | 5100 | 320 | 1
7 | Cc1cc(C)c(S(=O)(=O)N[C@@H](CNC(=O)c2ccc(-c3cccc(NC(=N)N)c3)s2)C(=O)O)c(C)c1 [Compound M-3, 3-{[5-(3-Guanidino-phenyl)-thiophene-2-carbonyl]-amino}-2-(2,4,6-trimethyl-benzenesulfonylamino)-propionic acid (trifluoroacetic acid salt)] | 1.9 | 1.1 | 0.018 | 1.6 | 34 | 140 | 6900 | 260 | 0.6
8 | Cc1cc(C)c(S(=O)(=O)N[C@@H](CNC(=O)c2ccc(/C=C/CNC(=N)N)s2)C(=O)O)c(C)c1 [Compound U-2, (S)-3-{[5-(3-Guanidino-(E)-propenyl)-thiophene-2-carbonyl]-amino}-2-(2,4,6-trimethyl-benzenesulfonylamino)-propionic acid trifluoroacetic acid salts] | 0.5 | 0.54 | 1.5 | 6 | 6.1 | 26 | 4800 | 180 | 1
9 | Cc1cc(C)c(S(=O)(=O)NC(CNC(=O)c2ccc(-c3cccc(NC(=N)N)c3)s2)C(=O)Nc2nccs2)c(C)c1 (stereo not shown) [Compound X-5, 5-(3-Guanidino-phenyl)-thiophene-2-carboxylic acid [2-(thiazol-2-ylcarbamoyl)-2-(2,4,6-trimethyl-benzenesulfonylamino)-ethyl]-amide hydrochloride salt] | 360 | – | – | – | – | – | – | – | –
